According to patent US7045600B2, “Modification of collagenous materials and medical treatment, diagnosis and monitoring of fibrotic conditions” (Nederlandse Organisatie voor …, priority 1999, dated 2006):

How the values were obtained:
[1] = system: helical lysyl hydroxylase; settings: cited from earlier work
[2] = system: lysyl hydroxylation level of the telopeptides (pyridinoline cross-links) in chondrocytes; experiment: Pyridinoline (HP and LP) cross-links in collagen from calf chondrocytes cultured in alginate beads with minoxidil; format: cell-based, calves; settings: culture period of 20–50 days
Procedure: Chondrocytes from the metacarpophalangeal joint of calves (12–14 months old, local slaughterhouse) were isolated by collagenase digestion: cartilage slices were minced and digested overnight at 37° C. in 0.14% (w/v) collagenase (Worthington CLS2) in Dulbecco's modified Eagle's medium (DMEM). After filtration of the suspension, cells were washed suspended in 1.2% (w/v) alginate (Keltone LVCR) in 0.9% NaCI at a density of 4×10^6 cells/ml, which was passed dropwise through a 22-gauge needle into 102 mM CaCl2. After 10 min of polymerization, beads were washed in 0.9% (w/v) NaCl (three times) and finally in complete medium: DMEM-Glutamax (Gibco BRL) supplemented with 100 U/ml of penicillin/streptomycin, 10% (v/v) foetal calf serum and 50 μg/ml ascorbic acid. The cells were cultured at 10 beads per 0.5 ml medium in a humid atmosphere of 5% CO2 in air at 37° C.; the medium was refreshed twice weekly. Minoxidil was dissolved in complete medium and added to the culture after 7 days of preculture under control conditions. Harvested beads were washed with 0.9% NaCl containing 10 mM CaCl2 and hydrolyzed in 900 μl 6 M HCl at 108° C. for 20–24 h. […] Based on hydroxyproline levels, amounts of collagen were calculated, assuming 300 hydroxyproline residues/triple helix. […] Crosslinks were expressed as amount of residues per collagen molecule.

[3] = system: PLOD2B mRNA; experiment: PLOD2B mRNA levels by real-time PCR in minoxidil-treated human skin fibroblasts and myofibroblasts; format: cell-based; settings: 1 mM minoxidil, 41 hours, versus untreated (FIG. 8)
Procedure: To substantiate that minoxidil suppresses the expression of PLOD2, human skin fibroblasts and myofibroblasts were cultured in 25 cm^2 flasks in DMEM (Gibco) supplemented with 10% FBS in 5% CO2. At near confluency the fibroblasts and myofibroblasts were incubated for 41 hours in medium containing 1 mM minoxidil. Minoxidil was dissolved at room temperature in medium with 10% FBS for 8 hours which was filtered prior to use. As a control both cell types were incubated for 41 hours in medium without minoxidil. At the end of the incubation period, the cells were washed with PBS and lysed with 600 μl RLT-buffer (RNeasy kit, Qiagen). RNA was isolated following the manufacturers protocol and subsequently reverse transcribed into cDNA (first strand cDNA synthesis kit, Roche Molecular Biochemicals). The levels of PLOD2B mRNA in the untreated and minoxidil-treated cells were quantified using real-time PCR as described in example 8. […]
Real time PCR amplification of PLOD2 and β2-microglobulin was performed, using specific primers (PLOD2 forward primer: 5′ […] 3′ (SEQ ID NO:48) PLOD2 reverse primer: 5′ […] 3′ (SEQ ID NO:49)β2-microglobulin forward primer; 5′ […] 3 (SEQ ID NO:50)β32-microglobulin reverse primer 5′ […] 3′) (SEQ ID NO:51) and specific molecular beacons PLOD2: 5′ FAM-cgtgcg[…] […] Data was analysed using sequence detector V1.7 software.

[4] = system: PLOD2B mRNA; experiment: PLOD2B mRNA levels by real-time PCR in TGF-β-treated human skin fibroblasts; format: cell-based; settings: for increase of PLOD2B mRNA levels: human skin fibroblasts, 1, 5 or 10 nM, 50 hours, versus untreated (FIG. 9)
Procedure: Human skin fibroblasts were cultured in 25 cm^2 flasks in DMEM (Gibco) supplemented with 10% FBS in 5% CO2. At near confluency the fibroblasts and myofibroblasts were incubated for 50 hours in medium containing 1, 5 or 10 nM human recombinant TGF-β1, -β2 or -β3. As a control, human skin fibroblasts were incubated for 50 hours in medium without the addition of TGF-β. At the end of the incubation period, the cells were washed with PBS and lysed with 600 μl RLT-buffer (RNeasy kit, Qiagen). RNA was isolated following the manufacturers protocol and subsequently reverse transcribed into cDNA (first strand cDNA synthesis kit, Roche Molecular Biochemicals). The levels of PLOD2B mRNA in the untreated and TGF-β treated cells were quantified using real-time PCR as described in example 8.
RNA, obtained from cultured human skin fibroblasts and cultured human myofibroblast, was isolated using the RNeasy kit (Qiagen). To remove any genomic DNA in the RNA sample, a Dnase treatment was carried out, using RQ1 Rnase-free Dnase (Promega). RNA was then reverse transcripted into cDNA and subjected to real time PCR amplification.
Real time PCR amplification of PLOD2 and β2-microglobulin was performed, using specific primers (PLOD2 forward primer: 5′ […] 3′ (SEQ ID NO:48) PLOD2 reverse primer: 5′ […] 3′ (SEQ ID NO:49)β2-microglobulin forward primer; 5′ […] 3 (SEQ ID NO:50)β32-microglobulin reverse primer 5′ […] 3′) (SEQ ID NO:51) and specific molecular beacons PLOD2: 5′ FAM-cgtgcg[…] (SEQ ID NO:52) cgcacg-DABCYL 3 ′; β2-microglobulin: 5′HEX-cgtgc[…] (SEQ ID NO:53) gcacg-DABCYL 3′). PLOD2 was amplified in a multiplex PCR together with β2-microglobulin in a total reaction volume of 25μl, containing 1×PCR buffer (Applied Biosystems), 0.4 mM of each dNTP, 3.5 mM Mg^2+, 250 nM of each target primer, 100 nM of each primer for μ2microglobulin and 1 unit Amplitaq Gold polymerase (Applied Biosystems). PCR was performed in a ABI PRISM® 7700 Sequence Detection System and consisted of a 5 minute interval at 95° C., followed by 40 cycles of 95° C. for 30 seconds, 56° C. for 40 seconds and 72° C. for 30 seconds. Data was analysed using sequence detector V1.7 software.

## CCOC(=O)CC(SP(=O)(OC)OC)C(=O)OCC (stereo not shown) [malaoxon]
[1]
  helical lysyl hydroxylase inhibition: inhibit

## CCOC(=O)CC(SP(=S)(OC)OC)C(=O)OCC (stereo not shown) [malathion]
[1]
  helical lysyl hydroxylase inhibition: inhibit

## Nc1cc(N2CCCCC2)nc(N)[n+]1[O-] [minoxidil]
[2]; alginate beads cultured with 0.3 mM minoxidil
  amount of pyridinolines (HP and LP), mean: 0.38 residues/collagen molecule
[2]; alginate beads cultured with 1.0 mM or 2.0 mM minoxidil
  amount of pyridinolines (HP and LP), mean: around 0.15 residues/collagen molecule
[3]; human myofibroblasts
  reduction of PLOD2B mRNA levels: about 15 fold
[3]; human skin fibroblasts
  reduction of PLOD2B mRNA levels: 4 fold

## TGF-β
[4]; fibroblasts, TGF-β added to the culture medium
  expression of PLOD2B (FIG. 9 legend, in words): increased

## TGF-β1: human recombinant TGF-β1
[4]
  increase of PLOD2B mRNA levels: about 20 fold

B1: TGF-β3: human recombinant TGF-β3 (protein, UniProt P10600 301-412, looked up)
Transforming growth factor …: ALDTNYCFRNLEENCCVRPLYIDFRQDLGWKWVHEPKGYYANFCSGPCPYLRSADTTHSTVLGLYNTLNPEASASPCCVPQDLEPLTILYYVGRTPKVEQLSNMVVKSCKCS
[4]
  increase of PLOD2B mRNA levels: about 20 fold

B2: TGF-β2: human recombinant TGF-β2 (protein, UniProt P61812 303-414, looked up)
Transforming growth factor …: ALDAAYCFRNVQDNCCLRPLYIDFKRDLGWKWIHEPKGYNANFCAGACPYLWSSDTQHSRVLSLYNTINPEASASPCCVSQDLEPLTILYYIGKTPKIEQLSNMIVKSCKCS
[4]
  increase of PLOD2B mRNA levels: about 20 fold
